One may read the IC50 as the concentration needed to halve the response being measured.

Among the data in patent US10597380B2, “Pyridazinone-based broad spectrum anti-influenza inhibitors” (Hoffmann-La Roche Inc., priority 2017, dated 2020) are IC50 values, retold here.

This experiment concerns Influenza A/WSN/33-Luciferase virus. Description: microbe, parasite or virus in culture. The conditions noted are these: A549, 72 h, luciferase signal three days later, read-out: IC50 antiviral activity (Luciferase reporter assay). Type of experiment: cell-based. A general note: A reporter such as luciferase makes a cellular process visible.
Turning to `Cn1cccc(Nc2nn(-c3ccc(OC(F)(F)F)cc3)c(=O)c3c2COCC3)c1=O` [Example 63, 4-[(1-methyl-2-oxo-3-pyridyl)amino]-2-[4-(trifluoromethoxy)phenyl]-7,8-dihydro-5H-pyrano[3,4-d]pyridazin-1-one], the IC50 came out at 33 nM. The figure for `Cn1cccc(Nc2nn(-c3ccc(OC(F)(F)F)cc3)c(=O)c3c2CC(C)(C)C3)c1=O` [Example 61, 6,6-dimethyl-1-[(1-methyl-2-oxo-3-pyridyl)amino]-3-[4-(trifluoromethoxy)phenyl]-5,7-dihydrocyclopenta[d]pyridazin-4-one] is 60 nM; for `O=c1c(Nc2nn(-c3ccc(OC(F)(F)F)cc3)c(=O)c3ccccc23)cccn1CCN1CCOCC1` [Example 76, 4-[[1-(2-morpholinoethyl)-2-oxo-3-pyridyl]amino]-2-[4-(trifluoromethoxy)phenyl]phthalazin-1-one] it is 34 nM; for `CCc1cc(Nc2nn(-c3ccc(OC(F)(F)F)cc3)c(=O)c3ccccc23)c(=O)n(C)c1` [Example 67, 4-[(5-ethyl-1-methyl-2-oxo-3-pyridyl)amino]-2-[4-(trifluoromethoxy)phenyl]phthalazin-1-one] it is 563 nM. The figure for `Cn1cccc(Nc2nn(-c3ccc(OC(F)(F)F)cc3)c(=O)c3cc(O)ccc23)c1=O` [Example 125, 7-Hydroxy-4-[(1-methyl-2-oxo-3-pyridyl)amino]-2-[4-(trifluoromethoxy)phenyl]phthalazin-1-one] is 88 nM; for `CC(C)NC(=O)Cn1cccc(Nc2nn(-c3ccc(OC(F)(F)F)cc3)c(=O)c3ccccc23)c1=O` [Example 90, N-isopropyl-2-[2-oxo-3-[[4-oxo-3-[4-(trifluoromethoxy)phenyl]phthalazin-1-yl]amino]-1-pyridyl]acetamide] it is 162 nM; for `CNC(=O)CCCn1cccc(Nc2nn(-c3ccc(OC(F)(F)F)cc3)c(=O)c3ccccc23)c1=O` [Example 97, N-methyl-4-[2-oxo-3-[[4-oxo-3-[4-(trifluoromethoxy)phenyl]phthalazin-1-yl]amino]-1-pyridyl]butanamide] it is 9 nM. The figure for `CC(C)N1CCc2c(Nc3cccn(C)c3=O)nn(-c3ccc(OC(F)(F)F)cc3)c(=O)c2C1` [Example 159, 6-Isopropyl-1-[(1-methyl-2-oxo-3-pyridyl)amino]-3-[4-(trifluoromethoxy)phenyl]-7,8-dihydro-5H-pyrido[3,4-d]pyridazin-4-one] is 186 nM; for `COCCOc1ccc(-n2nc(Nc3cccn(C)c3=O)c3ccccc3c2=O)cc1` [Example 13, 2-[4-(2-methoxyethoxy)phenyl]-4-[(1-methyl-2-oxo-3-pyridyl)amino]phthalazin-1-one] it is 1510 nM. Consider `Cn1cccc(Nc2nn(-c3ccc(OC(F)(F)F)cc3)c(=O)c3c(F)cccc23)c1=O` [Example 17, 8-fluoro-4-[(1-methyl-2-oxo-3-pyridyl)amino]-2-[4-(trifluoromethoxy)phenyl]phthalazin-1-one], for which the IC50 was determined as 100 nM. Turning to `CNC(=O)N1CCc2c(c(Nc3cccn(C)c3=O)nn(-c3ccc(OC(F)(F)F)cc3)c2=O)C1` [Example 160, N-Methyl-4-[(1-methyl-2-oxo-3-pyridyl)amino]-1-oxo-2-[4-(trifluoromethoxy)phenyl]-7,8-dihydro-5H-pyrido[3,4-d]pyridazine-6-carboxamide], the IC50 is 86 nM. In the case of `O=C(O)[C@@H]1CCCN1CCn1cccc(Nc2nn(-c3ccc(OC(F)(F)F)cc3)c(=O)c3ccccc23)c1=O` [Example 115, (2S)-1-[2-[2-oxo-3-[[4-oxo-3-[4-(trifluoromethoxy)phenyl]phthalazin-1-yl]amino]-1-pyridyl]ethyl]pyrrolidine-2-carboxylic acid] it was 180 nM.

As to `CNC(=O)N1CCc2c(Nc3cccn(C)c3=O)nn(-c3ccc(OC(F)(F)F)cc3)c(=O)c2C1` [Example 161, N-Methyl-1-[(1-methyl-2-oxo-3-pyridyl)amino]-4-oxo-3-[4-(trifluoromethoxy)phenyl]-7,8-dihydro-5H-pyrido[3,4-d]pyridazine-6-carboxamide], the IC50 is 112 nM. In the case of `CNC(=O)CCn1cccc(Nc2nn(-c3ccc(OC(F)(F)F)cc3)c(=O)c3ccccc23)c1=O` [Example 95, N-methyl-3-[2-oxo-3-[[4-oxo-3-[4-(trifluoromethoxy)phenyl]phthalazin-1-yl]amino]-1-pyridyl]propanamide], the 50% inhibitory concentration (IC50) turned out to be 102 nM.

Regarding `CC(O)c1ccc2c(Nc3cccn(C)c3=O)nn(-c3ccc(OC(F)(F)F)cc3)c(=O)c2c1` (centres unmarked) [Example 140, 7-(1-Hydroxyethyl)-4-[(1-methyl-2-oxo-3-pyridyl)amino]-2-[4-(trifluoromethoxy)phenyl]phthalazin-1-one], the 50% inhibitory concentration (IC50) is 32 nM. The figure for `CNCCn1cncc(Nc2nn(-c3ccc(OC(F)(F)F)cc3)c(=O)c3c2CCC3)c1=O` [Example 128, 1-[[1-[2-(Methylamino)ethyl]-6-oxo-pyrimidin-5-yl]amino]-3-[4-(trifluoromethoxy)phenyl]-6,7-dihydro-5H-cyclopenta[d]pyridazin-4-one] is 92 nM.

As to `Cn1cccc(Nc2nn(-c3ccc(OC(F)F)cc3)c(=O)c3c2CCCC3)c1=O` [Example 27, 2-[4-(difluoromethoxy)phenyl]-4-[(1-methyl-2-oxo-3-pyridyl)amino]-5,6,7,8-tetrahydrophthalazin-1-one], the IC50 amounted to 41 nM. In the case of `O=c1c(Nc2nn(-c3ccc(OC(F)(F)F)cc3)c(=O)c3c2CCC3)cccn1CCCN1CCOCC1` [Example 44, 1-[[1-(3-morpholinopropyl)-2-oxo-3-pyridyl]amino]-3-[4-(trifluoromethoxy)phenyl]-6,7-dihydro-5H-cyclopenta[d]pyridazin-4-one] it was 28 nM. For the molecule `Cn1cccc(Nc2nn(-c3ccc(C(C)(C)C)nc3)c(=O)c3ccccc23)c1=O` [Example 8, 2-(6-tert-butyl-3-pyridyl)-4-[(1-methyl-2-oxo-3-pyridyl)amino]phthalazin-1-one], the half-inhibitory concentration (IC50) stood at 73 nM. The figure for `COCCOc1ccc2c(Nc3cccn(C)c3=O)nn(-c3ccc(OC(F)(F)F)cc3)c(=O)c2c1` [Example 137, 7-(2-Methoxyethoxy)-4-[(1-methyl-2-oxo-3-pyridyl)amino]-2-[4-(trifluoromethoxy)phenyl]phthalazin-1-one] is 136 nM.

Take `CCc1ccc2c(=O)n(-c3ccc(OC(F)(F)F)cc3)nc(Nc3cccn(C)c3=O)c2c1` [Example 81, 6-ethyl-4-[(1-methyl-2-oxo-3-pyridyl)amino]-2-[4-(trifluoromethoxy)phenyl]phthalazin-1-one]: the half-inhibitory concentration (IC50) amounted to 465 nM. In the case of `COC(=O)CCCn1cc(Cl)cc(Nc2nn(-c3ccc(OC(F)(F)F)cc3)c(=O)c3c2CCC3)c1=O` [Example 37, methyl 4-[5-chloro-2-oxo-3-[[4-oxo-3-[4-(trifluoromethoxy)phenyl]-6,7-dihydro-5H-cyclopenta[d]pyridazin-1-yl]amino]-1-pyridyl]butanoate] it was 20 nM; in that of `CNC(=O)c1cc(Nc2nn(-c3ccc(OC(F)(F)F)cc3)c(=O)c3ccccc23)c(=O)n(C)c1` [Example 175, N,1-Dimethyl-6-oxo-5-[[4-oxo-3-[4-(trifluoromethoxy)phenyl]phthalazin-1-yl]amino]pyridine-3-carboxamide], 74400 nM.
